Results on 41 molecules are retold here after patent publication US9884841B2, “Small molecule inhibitors of Mcl-1 and uses thereof” (The Regents of the University of Michigan, priority 2015, dated 2018).

Structures are written as SMILES.

The assay concerns the target Mcl-1 (Homo sapiens, UniProt Q07820). The assay can be described thus: FP based binding assay to Mcl-1 (Bid BH3 peptide probe). To be noted: for improvement in comparison with 382: relative to 382.
The mark [1] stands for this setting: Binding affinity of Mcl-1 inhibitors using FP based assay, Table 1.

Chain of Mcl-1 (Q07820 whole entry): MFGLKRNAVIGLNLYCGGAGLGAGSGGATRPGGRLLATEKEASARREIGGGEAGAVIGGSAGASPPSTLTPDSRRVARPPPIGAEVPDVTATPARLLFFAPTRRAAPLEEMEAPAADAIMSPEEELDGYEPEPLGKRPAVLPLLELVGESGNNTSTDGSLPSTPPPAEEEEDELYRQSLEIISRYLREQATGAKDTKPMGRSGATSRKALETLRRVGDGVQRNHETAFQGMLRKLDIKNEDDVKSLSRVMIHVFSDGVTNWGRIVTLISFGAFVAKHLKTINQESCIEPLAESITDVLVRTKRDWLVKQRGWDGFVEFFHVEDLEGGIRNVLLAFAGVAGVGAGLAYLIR

One may read the Ki as a dissociation constant, usually derived from enzyme kinetics or from competition with a known ligand. Read a high Ki as weaker binding. `COC(=O)c1cc(-c2ccc(COc3cccc(C(F)(F)F)c3)cc2)c(C(C)C)cc1NS(=O)(=O)c1ccc(Oc2ccc(F)cc2)cc1` [Compound 481, methyl 4-(4-(4-fluorophenoxy)phenylsulfonamido)-6-isopropyl-4′-((3-(trifluoromethyl)phenoxy)methyl)-[1,1′-biphenyl]-3-carboxylate]: the Ki under setting [1] is > 2000 nM.
The same measure, in the same setting: the same measure for `Nc1ccc(SCCc2ccccc2)cc1C(=O)O` [Compound 416, 2-Amino-5-(phenethylthio)benzoic acid]: 1450 ± 132 nM; for `CC(C)c1cc(NS(=O)(=O)c2ccc(Oc3ccc(F)cc3)cc2)c(C(=O)O)cc1-c1ccc(COc2cccc(C(F)(F)F)c2)cc1` [Compound 480, 4-(4-(4-fluorophenoxy)phenylsulfonamido)-6-isopropyl-4′-((3-(trifluoromethyl)phenoxy)methyl)-[1,1′-biphenyl]-3-carboxylic acid]: 10 ± 3 nM.
Turning to `O=C(O)c1cc(-c2ccc(COc3cccc4ccccc34)cc2)ccc1NS(=O)(=O)c1ccc2ccccc2c1` [Compound 475, 4′-((naphthalen-1-yloxy)methyl)-4-(naphthalene-2-sulfonamido)-[1,1′-biphenyl]-3-carboxylic acid], the “improvement in comparison with 382” value is 6 fold. The affinity (binding affinity to Mcl-1), expressed as Ki, was 27 ± 5 nM.
In turn, `O=C(O)c1cc(-c2ccccc2COc2cccc3ccccc23)ccc1NS(=O)(=O)c1ccc2ccccc2c1` [Compound 473, 2′-((naphthalen-1-yloxy)methyl)-4-(naphthalene-2-sulfonamido)-[1,1′-biphenyl]-3-carboxylic acid] came in with a Ki under setting [1] of 31 ± 9 nM.
`CC(C)c1cc(NS(=O)(=O)c2ccc3ccccc3c2)c(C(=O)O)cc1-c1ccc(COc2cccc(C(F)(F)F)c2)cc1` [Compound 474, 6-isopropyl-4-(naphthalene-2-sulfonamido)-4′-((3-(trifluoromethyl)phenoxy)methyl)-[1,1′-biphenyl]-3-carboxylic acid] yielded a Ki under setting [1] of 23 ± 3 nM.
On to `O=C(O)c1ccccc1NS(=O)(=O)c1ccccc1` [Compound 455, 2-(phenylsulfonamido)benzoic acid], for which the Ki under setting [1] was > 2000 nM.
Same read-out and setting: the result for `O=C(O)c1cc(SCCc2ccccc2)ccc1NS(=O)(=O)c1ccccc1-c1ccccc1` [Compound 458, 2-([1,1′-biphenyl]-2-ylsulfonamido)-5-(phenethylthio)benzoic acid] reads 79 ± 25 nM; that for `O=C(CCc1ccccc1)Nc1ccc(SCCc2ccccc2)cc1C(=O)O` [Compound 454, 5-(phenethylthio)-2-(3-phenylpropanamido)benzoic acid], 874 ± 246 nM.
In turn, `O=C(O)c1cc(SCCc2ccccc2)ccc1NS(=O)(=O)N1CCN(c2ccccc2)CC1` [Compound 396, 5-(Phenethylthio)-2-(1-phenylpiperazine-4-sulfonamido)benzoic acid] gave an inhibitory constant (Ki) under setting [1] of 200 ± 30 nM.
On the same count and under the same terms, the same measure for `COC(=O)c1cc(-c2ccc(COc3cccc(C(F)(F)F)c3)cc2)c(C(C)C)cc1NC(=O)c1ccc(Oc2ccccc2)cc1` [Compound 486, methyl 6-isopropyl-4-(4-phenoxybenzamido)-4′-((3-(trifluoromethyl)phenoxy)methyl)-[1,1′-biphenyl]-3-carboxylate]: > 2000 nM.
`O=C(O)c1cc(SCCc2ccccc2)ccc1NS(=O)(=O)c1ccc(Oc2ccccc2)cc1` [Compound 376, 5-(Phenethylthio)-2-(4-phenoxyphenylsulfonamido)benzoic acid] registered a Ki under setting [1] of 44 ± 14 nM.
Take `CC(C)c1cc(NS(=O)(=O)c2ccc3ccccc3c2)c(C(=O)O)cc1SCCc1ccccc1` [Compound 478, 4-isopropyl-2-(naphthalene-2-sulfonamido)-5-(phenethylthio)benzoic acid]: the “improvement in comparison with 382” value is given as 2.5 fold. Moreover, the Ki under setting [1] came to 70 ± 21 nM.
Under setting [1], `Nc1ccc(-c2ccc(COc3cccc(C(F)(F)F)c3)cc2)cc1C(=O)O` [Compound 469, 4-amino-4′-((3-(trifluoromethyl)phenoxy)methyl)-[1,1′-biphenyl]-3-carboxylic acid] displayed a Ki of 2360 ± 80 nM.
`O=C(O)c1cc(-c2ccccc2COc2cccc(C(F)(F)F)c2)ccc1NS(=O)(=O)c1ccc2ccccc2c1` [Compound 468, 4-(naphthalene-2-sulfonamido)-2′-((3-(trifluoromethyl)phenoxy)methyl)-[1,1′-biphenyl]-3-carboxylic acid]: the Ki under setting [1] was found to be 50 ± 11 nM.
Still for that read-out and setting: the result for `O=C(O)c1ccccc1NS(=O)(=O)c1ccc2ccccc2c1` [Compound 453, 2-(naphthalene-2-sulfonamido)benzoic acid] reads > 2000 nM.
On to `O=C(O)c1ccccc1NS(=O)(=O)N1CCN(c2ccccc2)CC1` [Compound 460, 2-(1-phenylpiperazine-4-sulfonamido)benzoic acid], for which the “Mcl-1 binding, in words” value is listed as “deleterious”. Besides, under setting [1], the Ki was > 2000 nM.
`O=C(O)c1cc(SCc2ccccc2)ccc1NS(=O)(=O)c1ccccc1` [Compound 392, 5-(Benzylthio)-2-(phenylsulfonamido)benzoic acid] returned a Ki under setting [1] of 993 ± 178 nM.
Regarding `Nc1ccc(-c2ccccc2COc2cccc(C(F)(F)F)c2)cc1C(=O)O` [Compound 467, 4-amino-2′-((3-(trifluoromethyl)phenoxy)methyl)-[1,1′-biphenyl]-3-carboxylic acid], the Ki under setting [1] was 1160 ± 196 nM.
For `O=C(O)c1cc(-c2ccc(COc3cccc(C(F)(F)F)c3)cc2)ccc1NS(=O)(=O)c1ccc2ccccc2c1` [Compound 471, 4-(naphthalene-2-sulfonamido)-4′-((3-(trifluoromethyl)phenoxy)methyl)-[1,1′-biphenyl]-3-carboxylic acid], the Ki under setting [1] stood at 36 ± 6 nM.
Same read-out and setting: the same measure for `O=C(O)c1cc(SCCc2ccccc2)ccc1NS(=O)(=O)N1CCN(Cc2ccccc2)CC1` [Compound 414, 2-(1-benzylpiperazine-4-sulfonamido)-5-(phenethylthio)benzoic acid]: 275 ± 21 nM; for `CC(C)c1cc(NS(=O)(=O)c2ccc(Oc3ccccc3)cc2)c(C(=O)O)cc1-c1ccc(COc2cccc(C(F)(F)F)c2)cc1` [Compound 477, 6-isopropyl-4-(4-phenoxyphenylsulfonamido)-4′-((3-(trifluoromethyl)phenoxy)methyl)-[1,1′-biphenyl]-3-carboxylic acid]: 13 ± 3 nM.
The same measure, in the same setting: the same measure for `O=C(O)c1cc(SCCc2ccccc2)ccc1NS(=O)(=O)Cc1ccc(Cl)cc1` [Compound 398]: 241 ± 89 nM; for `O=C(O)c1cc(SCCc2ccccc2)ccc1NS(=O)(=O)CCc1ccccc1` [Compound 443, 5-(phenethylthio)-2-(2-phenylethylsulfonamido)benzoic acid]: 343 ± 33 nM; for `COC(=O)c1cc(-c2ccc(COc3cccc(C(F)(F)F)c3)cc2)c(C(C)C)cc1NS(=O)(=O)c1ccc2ccccc2c1` [Compound 482, methyl 6-isopropyl-4-(naphthalene-2-sulfonamido)-4′-((3-(trifluoromethyl)phenoxy)methyl)-[1,1′-biphenyl]-3-carboxylate]: > 2000 nM.
The same measure, in the same setting: the result for `O=C(O)c1ccc(SCCc2ccccc2)cc1NS(=O)(=O)c1ccccc1` [Compound 702, 4-(Phenethylthio)-2-(phenylsulfonamido)benzoic acid] reads 2360 ± 116 nM; that for `CCCc1ccc(-c2ccc(NS(=O)(=O)c3ccc4ccccc4c3)c(C(=O)O)c2)cc1` [Compound 466, 4-(naphthalene-2-sulfonamido)-4′-propyl-[1,1′-biphenyl]-3-carboxylic acid], 94 ± 17 nM.
`CC(C)c1cc(NS(=O)(=O)c2ccc(Oc3ccccc3)cc2)c(C(=O)O)cc1SCCc1ccccc1` [Compound 476, 4-isopropyl-5-(phenethylthio)-2-(4-phenoxyphenylsulfonamido)benzoic acid] had a Ki under setting [1] of 35 ± 13 nM.
For `O=C(O)c1cc(SCCc2ccccc2)ccc1NS(=O)(=O)c1ccc(-c2ccc(Cl)cc2)cc1` [Compound 380, 2-(4′-chloro-[1,1′-biphenyl]-4-ylsulfonamido)-5-(phenethylthio)benzoic acid], the “improvement of binding potency” value (R1 optimisation starting from 368) is recorded as 16 fold. This molecule showed a Ki (binding affinity to Mcl-1) of 31 nM.
Regarding `Cc1cccc(-c2cc(NS(=O)(=O)c3ccccc3)c(C(=O)O)cc2SCCC(=O)Nc2ccccc2)c1` [Compound 485], the Ki under setting [1] was 437 ± 67 nM.
In turn, `O=C(O)c1cc(SCCc2ccccc2)ccc1NS(=O)(=O)c1ccc(C2CCCCC2)cc1` [Compound 418, 2-(4-cyclohexylphenylsulfonamido)-5-(phenethylthio)benzoic acid] registered a Ki under setting [1] of 31 ± 10 nM.
Still for that read-out and setting: the result for `O=C(CCSc1ccc(NS(=O)(=O)N2CCN(c3ccccc3)CC2)c(C(=O)O)c1)Nc1ccccc1` [Compound 429] reads 2240 ± 431 nM.
On the same count and under the same terms, the result for `O=C(CCSc1ccc(NS(=O)(=O)c2ccccc2)c(C(=O)O)c1)Nc1ccccc1` [Compound 410] reads 233 ± 21 nM.
Same read-out and setting: the same measure for `O=C(O)c1cc(SCCc2ccccc2)ccc1NS(=O)(=O)c1ccccc1Br` [Compound 386, 2-(2-bromophenylsulfonamido)-5-(phenethylthio)benzoic acid]: 381 ± 66 nM; for `O=C(O)c1cc(SCc2ccccc2)ccc1NS(=O)(=O)N1CCN(c2ccccc2)CC1` [Compound 456, 5-(benzylthio)-2-(1-phenylpiperazine-4-sulfonamido)benzoic acid]: 387 ± 138 nM; for `Cc1cccc(-c2cc(NS(=O)(=O)N3CCN(c4ccc(C(C)(C)C)cc4)CC3)c(C(=O)O)cc2SCCC(=O)Nc2ccccc2)c1` [Compound 479]: 66 ± 27 nM.
In the case of `CC(C)(C)c1ccc(N2CCN(C(=O)CCc3cccc(-c4ccc(C(=O)O)c(NS(=O)(=O)N5CCN(c6ccc(C(C)(C)C)cc6)CC5)c4)c3)CC2)cc1` [Compound 484], under setting [1], the affinity, expressed as Ki, was 42 ± 17 nM.
Same read-out and setting: the same measure for `CC(C)(C)c1ccc(N2CCN(S(=O)(=O)Nc3ccc(SCCC(=O)Nc4ccccc4)cc3C(=O)O)CC2)cc1` [Compound 435]: 245 ± 48 nM; for `O=C(O)c1cc(SCCc2ccccc2)ccc1NS(=O)(=O)c1ccc(-c2ccccc2)cc1` [Compound 378, 2-([1,1′-biphenyl]-4-ylsulfonamido)-5-(phenethylthio)benzoic acid]: 48 ± 12 nM.
The same measure, in the same setting: the result for `O=C(Nc1ccc(SCCc2ccccc2)cc1C(=O)O)c1ccccc1` [Compound 364, 2-Benzamido-5-(phenethylthio)benzoic acid] reads 891 ± 185 nM.
For `O=C(CSc1ccc(NS(=O)(=O)c2ccccc2)c(C(=O)O)c1)Nc1ccccc1` [Compound 395], the Ki under setting [1] is > 2000 nM.
